The source of these data is ChEMBL document CHEMBL3734714, “Synthesis and cytostatic activity of 7-arylsulfanyl-7-deazapurine bases and ribonucleosides” (Medchemcomm, 2015).

Test [1] is described as follows: Cytostatic activity against human HCT116 cells after 3 days by MTT assay. The test is classed as functional, cell-based. Particulars: HCT-116, 72 h.
Another test relates to BJ. Description: Cytostatic activity against human BJ cells after 3 days by MTT assay. It counts as ADME, cell-based. As to conditions: 72 h. (Formazan colour is commonly taken as a measure of viable cells.)
Test [2] has as its system Hepatitis C virus. Description: Antiviral activity against HCV2A. Particulars: Hepacivirus hominis; genotype 2a. It counts as functional, organism-based.
A further test relates to HeLa S3. Nature of the test: Cytostatic activity against human HeLaS3 cells assessed as cell viability after 6 days by XTT assay. The test is classed as functional, cell-based. Particulars: HeLa S3, 144 h.
Test [3] in a line: Antiviral activity against RSV. It counts as functional, organism-based.
Test [4] concerns Hepatitis C virus. Description: Antiviral activity against HCV1B. The test is classed as functional, organism-based. Particulars: Hepacivirus hominis; genotype 1b.
In another test the test system is MRC5. Description: Cytostatic activity against human MRC5 cells after 3 days by MTT assay. It counts as ADME, cell-based. As to conditions: MRC5, 72 h.
Test [5] is described as follows: Cytostatic activity against p53 deficient human HCT116 cells after 3 days by MTT assay. The test is classed as functional, cell-based. As to conditions: HCT-116, 72 h.
Another test has as its system K562. Nature of the test: Cytostatic activity against human K562 cells after 3 days by MTT assay. It counts as functional, cell-based. As to conditions: K562, 72 h.
Test [6] in a line: Cytostatic activity against human CEM/DNR cells after 3 days by MTT assay. The test is classed as functional, cell-based. Particulars: 72 h.
Another test has as its system Candida. Description: Antifungal activity against Candida sp. It counts as functional, organism-based.
The test system of the next test is HL-60. Description: Cytostatic activity against human HL60 cells assessed as cell viability after 6 days by XTT assay. Particulars: HL-60, 144 h. The test is classed as functional, cell-based.
For a further test, the system named is A549. Nature of the test: Cytostatic activity against human A549 cells after 3 days by MTT assay. It counts as functional, cell-based. Particulars: A549, 72 h.
Another test has as its system CCRF-CEM. Description: Cytostatic activity against human CCRF-CEM cells after 3 days by MTT assay. It counts as functional, cell-based. As to conditions: 72 h.
The test system of the next test is HepG2. Description: Cytostatic activity against human HepG2 cells assessed as cell viability after 6 days by XTT assay. The test is classed as functional, cell-based. As to conditions: HepG2, 144 h.
The nature of test [7]: Cytostatic activity against human K562-TAX cells after 3 days by MTT assay. It counts as functional, cell-based. As to conditions: 72 h.

Active and inactive are the calls of the source. The calls are words filed in the database; no cut-off is given here.

Turning to `Nc1ncnc2[nH]cc(Sc3cccs3)c12`, the IC50 in test [1] was 22.8 µM; in the test with BJ, greater than 150 µM; in the test on HeLa S3, 17.9 µM; in the test on MRC5 it was 136 µM; in test [5], greater than 50 µM; with K562 it was 17.9 µM. Also, the IC50 was 20.3 µM in [6]; 13.9 µM with HL-60; 22.8 µM with A549; 16.7 µM with CCRF-CEM; greater than 25 µM in the test with HepG2; 17.9 µM in test [7]. Moreover, the outcome (with Hepatitis C virus [2]; in [3]; in the test with Hepatitis C virus [4]; with Candida) was inactive.

On to `c1coc(-c2ncnc3[nH]cc(Sc4cccs4)c23)c1`, for which the IC50 in [1] is 6.75 µM; with BJ it was 22.1 µM; in the test with HeLa S3 it was 8.49 µM; in the test on MRC5, 32.9 µM; in [5], 19.5 µM; with K562 it was 4.26 µM. Also, the IC50 is 20.8 µM in test [6]; 7.63 µM in the test with HL-60; 11.4 µM in the test on A549; 7.73 µM in the test on CCRF-CEM; greater than 25 µM in the test on HepG2; 18.9 µM in [7]. The outcome (in the test on Hepatitis C virus [2]; in test [3]; with Hepatitis C virus [4]; in the test with Candida) was inactive.

`Cc1ncnc2[nH]cc(Sc3cccs3)c12`: the half-maximal inhibitory concentration (IC50) is 38.1 µM in test [1]; greater than 150 µM in the test with BJ; greater than 25 µM in the test on HeLa S3; 136 µM with MRC5; 29.1 µM in test [5]; 14 µM in the test on K562. Moreover, the IC50 in test [6] is greater than 50 µM; in the test on HL-60, greater than 25 µM; in the test with A549 it was greater than 50 µM; in the test with CCRF-CEM it was greater than 50 µM; in the test with HepG2 it was greater than 25 µM; in [7], 64.6 µM. Further, the outcome (in the test on Hepatitis C virus [2]; in test [3]; with Hepatitis C virus [4]; in the test with Candida) was inactive.

On to `c1csc(Sc2c[nH]c3ncnc(-c4cccs4)c23)c1`, for which the IC50 in test [1] is 13 µM; with BJ, 23.4 µM; with HeLa S3, greater than 25 µM; in the test on MRC5 it was 54.5 µM; in [5] it was 5.06 µM; in the test with K562, 5.14 µM. Also, the concentration for half-maximal inhibition (IC50) in [6] is 17.7 µM; with HL-60, 21.1 µM; in the test on A549 it was 16.2 µM; with CCRF-CEM, 10.6 µM; in the test on HepG2, greater than 25 µM; in [7], 21.7 µM. For the same compound, the outcome (in the test on Hepatitis C virus [2]; in [3]; with Hepatitis C virus [4]; with Candida) was inactive.

For the compound `CN(C)c1ncnc2[nH]cc(Sc3cccs3)c12`, the half-inhibitory concentration (IC50) in test [1] was 11 µM; in the test with BJ, 145 µM; in the test with HeLa S3, greater than 25 µM; with MRC5 it was greater than 150 µM; in [5], 27.5 µM; in the test on K562, 3.83 µM. The IC50 in test [6] was 35.2 µM; with HL-60, greater than 25 µM; in the test on A549, 19.8 µM; in the test with CCRF-CEM, 14.6 µM; in the test on HepG2 it was greater than 25 µM; in test [7], 22.1 µM. For the same compound, the result (in the test on Hepatitis C virus [2]; in test [3]; in the test on Hepatitis C virus [4]; in the test on Candida) was inactive.

`CNc1ncnc2[nH]cc(Sc3cccs3)c12`: the IC50 came to 19 µM in test [1]; 132 µM in the test with BJ; 17.6 µM in the test on HeLa S3; 148 µM with MRC5; 45.3 µM in [5]; 4.95 µM in the test on K562. Besides, the 50% inhibitory concentration (IC50) was 26.2 µM in test [6]; 13.5 µM in the test on HL-60; 28.6 µM in the test on A549; 14.7 µM with CCRF-CEM; greater than 25 µM with HepG2; 21 µM in test [7]. In addition, the outcome (with Hepatitis C virus [2]; in test [3]; in the test with Hepatitis C virus [4]; with Candida) was inactive.

With `COc1ncnc2[nH]cc(Sc3cccs3)c12`, the half-maximal inhibitory concentration (IC50) in [1] is 17.2 µM; in the test on BJ it was 123 µM; in the test with HeLa S3, 23.9 µM; with MRC5 it was 148 µM; in [5] it was greater than 50 µM; with K562, greater than 50 µM. For the same compound, the IC50 was greater than 50 µM in test [6]; greater than 25 µM in the test with HL-60; 21.5 µM with A549; 18.2 µM in the test on CCRF-CEM; greater than 25 µM in the test with HepG2; 44 µM in test [7]. The outcome (in the test with Hepatitis C virus [2]; in test [3]; in the test with Hepatitis C virus [4]; in the test on Candida) was inactive.

As to `Nc1ncnc2c1c(Sc1ccccc1)cn2[C@@H]1O[C@H](CO)[C@@H](O)[C@H]1O`, the IC50 in test [1] was 20.8 µM; with BJ, 67.9 µM; in the test on HeLa S3, greater than 25 µM; in the test on MRC5, 67.7 µM; in test [5] it was 22.4 µM; in the test with K562 it was 23.1 µM. Further, the half-maximal inhibitory concentration (IC50) in test [6] is greater than 50 µM; with HL-60, greater than 25 µM; in the test with A549, 22.9 µM; with CCRF-CEM, 34 µM; in the test on HepG2 it was greater than 25 µM; in test [7], 29.6 µM. Moreover, the outcome (in the test with Hepatitis C virus [2]; in [3]; with Hepatitis C virus [4]; in the test with Candida) was inactive.

For the compound `Nc1ncnc2c1c(Sc1cccs1)cn2[C@@H]1O[C@H](CO)[C@@H](O)[C@H]1O`, the IC50 was 36.7 µM in [1]; 93.6 µM in the test with BJ; greater than 25 µM in the test with HeLa S3; 138 µM in the test with MRC5; 23.2 µM in test [5]; 23.4 µM in the test with K562. The IC50 in [6] was greater than 100 µM; with HL-60 it was greater than 25 µM; in the test on A549 it was 43.8 µM; with CCRF-CEM, 64.7 µM; in the test on HepG2, greater than 25 µM; in test [7], 55.8 µM. For the same compound, the result (with Hepatitis C virus [2]; in [3]; in the test with Hepatitis C virus [4]; in the test with Candida) was inactive.

The term IC50 denotes the concentration that gives 50% inhibition.
